Source: patent publication US10905757B2, “Cross-reactive T cell epitopes of HIV, SIV, and FIV for vaccines in humans and cats” (priority 2012, dated 2021)
“Also recorded” adds a separate entry of the source. Ends that are not written are not given here.

Experiments:
Format in all cases: cell-based, human
[1] = tested on: CD3+CD8+ T cells from HIV+ subjects; assay: CFSE-proliferation, CD3+CD8+ T cells from HIV+ subjects; settings: for CD8^+ T-cell Responder Frequency: responders/tested; for responder frequency of CD8+ T-cell proliferation to individual F3 peptides: eight F3 responders
Procedure: (§1) 2×10^5-5×10^5 CFSE labeled PBMCs were incubated with 15-20 μg of peptides in 600 μL of RPMI media with 10% FBS for 5 days at 37° C. (5% CO2). After harvesting, they were labeled with allophycocyanin (APC), APC-H7, and Pacific Blue labeled monoclonal antibodies (MAb) to human CD3, CD4, and CD8, respectively and analyzed for T-cell proliferation by flow cytometry using BD LSRII (BD Biosciences). The proliferating CD4^+ or CD8^+ T cell populations were defined from the CD3^+ cell population as either CD3^+CD8^+ or CD3^+CD4^+T cells (mutually exclusive) with low CFSE (CFSE^low) staining.
(§2) Flow cytometry (FACS) for carboxyfluoresein diacetate succinimide ester (CFSE)-proliferation and intracellular cytotoxin staining (ICS). The CFSE-proliferation analysis was performed on PBMC according to the manufacturer's protocol (Invitrogen, Carlsbad, Calif.) and processed as previously described (Lichterfeld et al. (2004)). Modifications consisted of using 2.0-5.0×10^5 CFSE-labeled cells stimulated for 5 days (37° C., 5% CO^2) with 30 μg/well of total peptides in a pool (15 μg/well for individual peptide, Table 10) or 5 μg/mL PHA in AIM V medium containing 25 μg/mL of gentamycin and 10% heat-inactivated human serum. Subsequently these cells were harvested and labeled with the LIVE/DEAD fixable yellow dye (Invitrogen) and then treated 5 min with anti-CD16/CD32 antibody (Biolegend, San Diego, Calif.) for blocking non-specific binding before phenotype-specific antibodies. The following antibodies were used for the CFSE-proliferation analysis: anti-CD4 APC, anti-CD3 APC-H7, and anti-CD8 Pacific Blue (BD Biosciences, San Jose, Calif.).
(§3) In both analyses, 1.0-2.0×10^4 cells were fixed in phosphate-buffered saline (PBS) containing 2% paraformaldehyde and analyzed on BD LSRII using […] Software (BD Biosciences), with a positive threshold of 3% CFSE^low for CFSE-proliferation and 1% T cells expressing cytotoxin for ICS. The final value for each subject was derived after subtraction of the subject's medium control and the average value of peptide-stimulated cells from uninfected control subjects.
(§4) Flow cytometry (FACS) for measuring CFSE-proliferation and intracellular cytokine staining (ICS). Carboxyfluorescein diacetate succinimide ester (CFSE)-proliferation analysis was performed according to the manufacturer's protocol (Invitrogen) and processed as previously described (Lichterfeld et al. 2004) using the following modification: 2.5-5.0×10^5 CFSE-labeled PBMC stimulated for 4-5 days (37° C., 5% CO2) with 15-30 μg of peptides in culture media (AIM V medium, 25 μg/mL gentamycin, and 10% heat-inactivated fetal bovine serum). The ICS analysis was performed as previously described (Horton et al. 2007; Pattacini et al. 2012).
(§5) The antibodies used for the proliferation analysis consisted of anti-CD4 allophycocyanin (APC) anti-CD3 APC-H7, and anti-CD8 Pacific Blue, and those for ICS were anti-CD3 APC-H7, anti-CD4 BD Horizon V450, anti-CD8 FITC, anti-granzyme B (GrzB) Alexa 700, anti-granzyme A (GrzA) PE (BD Biosciences, Cat #555349, 560176, 558207, 560345, 555366, 560213, 558904), and anti-perforin PerCP (Abcam, Cat #ab86319). Both analyses were performed with BD LSRII and […]™ Software (BD Biosciences), using a positive threshold of >1% CFSE^low for CFSE-proliferation except for ICS studies with threshold of >0.1% T cells expressing cytotoxin. The final value for each subject was derived after subtracting the result of each HIV^+ subject with the media control followed by subtraction with the average response of the media-control subtracted HIV^− subjects.

[2] = tested on: CD3+CD4+ T cells from HIV+ subjects; assay: CFSE-proliferation, CD3+CD4+ T cells from HIV+ subjects; settings: for CD4^+ T-cell Responder Frequency: responders/tested
Procedure: as §1, §2, §3, §4, §5

[3] = tested on: CD4+ or CD8+ T cells from HIV+ subjects; assay: Intracellular cytotoxin staining (ICS), CD4+ or CD8+ T cells from HIV+ responders; settings: for cytotoxin and CD107a expression in CD4+ and CD8+ T cells (in words): p24 peptides; for cytotoxin / CTL-associated activity (in words): RT pools and peptides
Procedure: Briefly, 1×10^6PBMCs (freshly isolated) are stimulated with 20 μg of peptides for 6 hours in a total volume of 200 μL in a 96-well plate in presence of Golgi transport inhibitor (37° C., 5% CO2). […] Cells were stained with the LIVE/DEAD® fixable yellow dye (Invitrogen, Eugene, Oreg.). […] The flow cytometry data is collected using BD LSRII and analyzed with the FACS DIVA software.
The cells were subsequently fixed and permeabilized with Cytofix/Cytoperm solution (BD Biosciences) before reaction with anti-cytotoxin antibodies. The antibodies consisted of anti-CD3 APC-H7, anti-CD4 BD Horizon V450, and anti-CD8 FITC followed by anti-GrzB Alexa 700 and anti-GrzA PE (all from BD Biosciences), and anti-perforin PerCP (Abcam, Boston, Mass.).
as §3
Flow cytometry (FACS) for measuring CFSE-proliferation and intracellular cytokine staining (ICS).
Both analyses were performed with BD LSRII and […]™ Software (BD Biosciences), using a positive threshold of >1% CFSE^low for CFSE-proliferation except for ICS studies with threshold of >0.1% T cells expressing cytotoxin.

[4] = tested on: CD8+ T cells from HIV+ subjects; assay: Intracellular cytotoxin staining (ICS: perforin, GrzA, GrzB, CD107a), CD8+ T cells from HIV+ subjects
Procedure: Briefly, 1×10^6PBMCs (freshly isolated) are stimulated with 20 μg of peptides for 6 hours in a total volume of 200 μL in a 96-well plate in presence of Golgi transport inhibitor (37° C., 5% CO2). The cells are processed as previously described (Horton et al. (2007)). Cells were stained with the LIVE/DEAD® fixable yellow dye (Invitrogen, Eugene, Oreg.). The monoclonal antibodies fluorochome-conjugated to human cytokines used are: APC-H7 to CD3 (clone SK7); BD Horizon V450 to CD4 (clone RPA-T4); Qdot to CD8 (clone 3B5); PE-cy7 to IFN-γ (clone 4S.B3); APC to IL-2 (clone MQ1-17H12) PerCP to perforin (clone B-D48); Alexa F1.700 to granzyme-B (clone GB11) and PE to granzyme-A (clone CB9). The flow cytometry data is collected using BD LSRII and analyzed with the FACS DIVA software.
The ICS analysis (Horton et al. (2007)) involved stimulating 0.5-1.0×10^6 freshly isolated PBMC for 6 h with the same peptide stimulant and culture conditions as the proliferation analysis in the presence of 1 μg/mL of Golgi transport inhibitor and monensin followed by labeling with LIVE/DEAD fixable yellow dye and then treatment with anti-CD16/CD32 antibody and T-cell phenotypic antibodies. The cells were subsequently fixed and permeabilized with Cytofix/Cytoperm solution (BD Biosciences) before reaction with anti-cytotoxin antibodies. The antibodies consisted of anti-CD3 APC-H7, anti-CD4 BD Horizon V450, and anti-CD8 FITC followed by anti-GrzB Alexa 700 and anti-GrzA PE (all from BD Biosciences), and anti-perforin PerCP (Abcam, Boston, Mass.).
as §3, §4, §5

[5] = small 9-13mer peptides, yr 4, responders to Fp9 or Fp14 pool via both proliferation and IFNγ
[6] = large 13-15mer peptides, yr 2, responders to Fp9 or Fp14 pool via CFSE proliferation

| Compound | CD8^+ T-cell Responder Frequency [1, 5] | CD8^+ T-cell Responder Frequency (%) [1, 5] | CD4^+ T-cell Responder Frequency [2, 5] | CD4^+ T-cell Responder Frequency (%) [2, 5] | cytotoxin and CD107a expression in CD4+ and CD8+ T cells (in words) [3] | further results |
| --- | --- | --- | --- | --- | --- | --- |
| Fp14-2/3c (AEVKLYLKQSL) | 9/10 | (90) % | 5/10 | (50) % |  |  |
| EQQAEARFAPARM [Fp9-1] |  |  |  |  |  | CD8^+ T-cell Responder Frequency (%) [1, 6]: (14) %; CD8^+ T-cell Responder Frequency [1, 6]: 1/7; CD4^+ T-cell Responder Frequency (%) [2, 6]: (0) %; CD4^+ T-cell Responder Frequency [2, 6]: 0/7 |
| QEQNTAEVKL [Fp14-1a] |  |  |  |  | high cytotoxin and CD107a expression |  |
| AEARFAPARMQCRAW [Fp9-2] |  |  |  |  |  | CD8^+ T-cell Responder Frequency (%) [1, 6]: (43) %; CD8^+ T-cell Responder Frequency [1, 6]: 3/7; Fp9 responders whose CD8+ T cells proliferate to individual 13-15mer peptide ([1]; seven Fp9 responders): 3 of 7; CD4^+ T-cell Responder Frequency (%) [2, 6]: (14) %; CD4^+ T-cell Responder Frequency [2, 6]: 1/7 |
| CSCC[C@H](NC(=O)[C@H](Cc1c[nH]c2ccccc12)NC(=O)[C@H](CC(N)=O)NC(=O)[C@H](CCCCN)NC(=O)[C@@H](NC(=O)[C@H](C)NC(=O)[C@H](C)NC(=O)[C@H](CC(=O)O)NC(=O)[C@@H](N)[C@@H](C)O)C(C)C)C(=O)N[C@H](C(=O)O)[C@@H](C)O [Sp14-1c] |  |  |  |  | slightly lower number of responses |  |
| TPVFAIKKKSGKWRM [F3-2] |  |  |  |  |  | responder frequency of CD8+ T-cell proliferation to individual F3 peptides [1]: 3 of 8 |
| Fp14-2/3b (AEVKLYLKQ) | 3/10 | (30) % | 1/10 | (10) % |  |  |
| QASQEVKNWM [Hp15-1a] |  |  |  |  | high cytotoxin and CD107a expression |  |
| Fp9-1/2a (EARFAPARM) | 5/9 | (56) % | 0/9 | (0) % |  |  |
| AEQASQEVKN [Hp15-1c] |  |  |  |  | high cytotoxin and CD107a expression |  |
| AEVKLYLKQSLSI [Fp14-3d] |  |  |  |  |  | Cytotoxins ([3]; responders to Fp9 or Fp14 peptide pools): Low Cytotoxins (only CD8) |
| Fp9-2/3b (APARMQCRA) | 3/9 | (33) % | 0/9 | (0) % |  |  |
| IDFRVLNKLTDKGA [F3-5] |  |  |  |  |  | responder frequency of CD8+ T-cell proliferation to individual F3 peptides [1]: 3 of 8 |
| QNTAEVKLYL [Fp14-1b] |  |  |  |  | high frequency of cytotoxin expression; also recorded: high cytotoxin and CD107a expression |  |
| Fp9-3e (ARMQCRAWYL) | 3/9 | (33) % | 1/9 | (11) % |  |  |
| NPWNTPVFAIKKK [F3-1] |  |  |  |  |  | cytotoxin / CTL-associated activity (in words) [3]: induced CTL-associated activities |
| KKKSGKWRMLIDFRV [F3-3] |  |  |  |  |  | cytotoxin / CTL-associated activity (in words) [3]: induce cytotoxin expression |
| LYLKQSLSI [Fp14-3/4e] |  |  |  |  | high frequency of cytotoxin expression |  |
| Fp9-3f (APARMQCRAWYL) | 4/9 | (44) % | 1/9 | (11) % |  |  |
| Fp14-1/2a (NTAEVKLYL) | 4/10 | (40) % | 1/10 | (10) % |  |  |
| VKNWMTQTL [Sp14-1a] |  |  |  |  | slightly lower number of responses |  |
| WRMLIDFRVLNKL [F3-4] |  |  |  |  |  | cytotoxin expression / CTL-associated activity in CD8+ T cells (in words) [4]: highest frequency and levels; cytotoxin / CTL-associated activity (in words) [3]: induced CTL-associated activities |
| Fp14-3/4g (YLKQSLSIA) | 6/10 | (60) % | 0/10 | (0) % |  |  |
